Data from patent US8614178B2, “Pharmaceutical composition for treatment of dry eye syndrome” (Novaliq GmbH, priority 2009, dated 2013).
Like-named read-outs stand apart in the source and are kept apart here.

What was measured:
[1] = system: Sjögren syndrome patients; conditions: oral, clinical studies; cited from earlier work
[2] = Refractive index determination; conditions: neat SFA
[3] = Droplet size (weight and volume) from three droppers; format: physicochemical; conditions: 25° C.; for Droplet volume: calculated; for Droplet weight: mean ± SD
Experimental: The droplet size of selected SFA's in terms of weight and volume of droplets from three droppers was determined and compared to that of purified water. The devices used for dispensing the droplets were (a) a 2 mL Pasteur pipette (wall thickness 0.53 mm; external tip diameter: 1.50 mm; length: 150 mm) made of glass, (b) a 20 G (0.9 mm×50 mm) injection needle, and (c) a dropper from a commercial eye drops product (Hylo-Vision). The droplet weights were measured at 25° C. using a laboratory balance; the volumes were calculated. Each test was performed 10 times.

rabbit eyes [4] = assay: Ex-vivo eye irritation test (EVEIT), abraded cornea
Experimental: (§1) The eyes were fastened in chambers coupled micropump systems which continuously supplied the eyes with cultivation medium (Minimal Essential Medium, MEM T031-05) without fetal calf serum. The vitality of the eyes was monitored by regularly measuring the concentration of lactate and glucose in the chamber eluate. The corneal surface of the eyes was damaged by abrasion, using a dental ceramic abrasive (638XF, Meisinger). For each eye, four lesions of 3.0 to 4.5 mm^2 were prepared.
(§2) To evaluate the effect of F4H5 and F4H5 with 1 wt.-% ethanol on the cornea, an amount of approx. 0.25 to 0.50 μl of the respective test substance was dropped onto the centre of a cornea once every hour over a period of 12 hours, followed by a 12 hour resting period in which the cornea was submersed in culture medium to simulate a closed lid during a night phase. In addition, an aqueous solution of hyaluronic acid (0.1 wt.-%) was used as reference (hyaluronic acid is know to enhance the restoration of the corneal surface after damage), culture medium was used as control, and aqueous benzalkonium chloride solution (0.01 wt.-%) was used as negative control. Each test was performed over a period of 3 days. The effects were observed by optical coherence tomography (OCT), by digitally determining the dimensions of the lesions after staining with fluorescein, and finally by a histological evaluation of the corneal epithelium and endothelium at the end of each experiment.
(§3) Each of the two vehicles was tested in two separate runs.

rabbit eyes [5] = system: rabbit eyes
Experimental: as §1, §2, §3

Q: Which “Effect on DED symptoms” value [1] does the source give for CC1OC2(CS1)CN1CCC2CC1 (stereo not shown) [Cevimeline] here?
A: Its value is “effective in the management of symptoms associated with keratoconjunctivitis sicca of the Sjögren type”.

Q: Which Refractive index [2] does the source give for CCCCC(F)(F)C(F)(F)C(F)(F)C(F)(F)F [Example F4H4] here?
A: The Refractive index was 1.308.

Q: For CCCCCC(F)(F)C(F)(F)C(F)(F)C(F)(F)F [Example F4H5], which Droplet volume ([3]; Eye dropper (Hylo-Vision)) is on record?
A: The Droplet volume was 9.6 ± 0.2 µL.

Q: And the Droplet weight ([3]; Eye dropper (Hylo-Vision))?
A: Its Droplet weight is 12.4 ± 0.2 mg.

Q: What about the Droplet volume ([3]; Glass pipette) of the same compound?
A: The Droplet volume was 4.7 ± 0.3 µL.

Q: And the Droplet weight ([3]; Glass pipette, 10 tests)?
A: The Droplet weight was 6.0 ± 0.4 mg.

Q: And the Droplet volume ([3]; Injection needle 20 G)?
A: Its Droplet volume is 2.0 ± 0.3 µL.

Q: And the Droplet weight ([3]; Injection needle 20 G)?
A: Its Droplet weight is 2.6 ± 0.4 mg.

Q: And the Refractive index [2]?
A: Its Refractive index is 1.3204.

Q: And the “Penetration into the cornea” value (rabbit eyes [4]; OCT imaging)?
A: Its value is “no indication of penetration of F4H5 into the cornea”.

Q: What about the “Morphological and histological evaluation of cornea” value (rabbit eyes [4]; end of test) of the same compound?
A: Its value is “had not only healed very well, but were also entirely clear at the end of the tests, with healthy and smooth surface morphology”.

Q: And the Physiological tolerability (rabbit eyes [4]; in words)?
A: Its Physiological tolerability is “better tolerated than culture medium”.

Q: Which Refractive index [2] does the source give for CCCCCCC(F)(F)C(F)(F)C(F)(F)C(F)(F)F [Example F4H6] here?
A: Its Refractive index is 1.334.

Q: Which Refractive index [2] does the source give for CCCCCCCC(F)(F)C(F)(F)C(F)(F)C(F)(F)F [Example F4H7] here?
A: Its Refractive index is 1.3357.

Q: For CCCCCCCCC(F)(F)C(F)(F)C(F)(F)C(F)(F)F [Example F4H8], which Refractive index [2] is on record?
A: Its Refractive index is 1.348.

Q: For CCC(F)(F)C(F)(F)C(F)(F)C(F)(F)C(F)(F)C(F)(F)F [Example F6H2], which Refractive index [2] is on record?
A: Its Refractive index is 1.295.

Q: For CCCCC(F)(F)C(F)(F)C(F)(F)C(F)(F)C(F)(F)C(F)(F)F [Example F6H4], which Refractive index [2] is on record?
A: The Refractive index was 1.306.

Q: Which Refractive index [2] does the source give for CCCCCCC(F)(F)C(F)(F)C(F)(F)C(F)(F)C(F)(F)C(F)(F)F [Example F6H6] here?
A: Its Refractive index is 1.3224.

Q: Which Refractive index [2] does the source give for CCCCCCCC(F)(F)C(F)(F)C(F)(F)C(F)(F)C(F)(F)C(F)(F)F [Example F6H7] here?
A: Its Refractive index is 1.3366.

Q: With CCCCCCCCC(F)(F)C(F)(F)C(F)(F)C(F)(F)C(F)(F)C(F)(F)F [Example F6H8] as the compound, how does the Droplet volume ([3]; Eye dropper (Hylo-Vision)) read?
A: Its Droplet volume is 10.3 ± 0.3 µL.

Q: What about the Droplet weight ([3]; Eye dropper (Hylo-Vision)) of the same compound?
A: The Droplet weight was 13.7 ± 0.4 mg.

Q: And the Droplet volume ([3]; Glass pipette)?
A: The Droplet volume was 5.0 ± 0.4 µL.

Q: And the Droplet weight ([3]; Glass pipette, 10 tests)?
A: Its Droplet weight is 6.6 ± 0.6 mg.

Q: What about the Droplet volume ([3]; Injection needle 20 G) of the same compound?
A: Its Droplet volume is 2.5 ± 0.1 µL.

Q: And the Droplet weight ([3]; Injection needle 20 G)?
A: Its Droplet weight is 3.4 ± 0.2 mg.

Q: And the “Healing of corneal lesions” value (rabbit eyes [5])?
A: The value was “all lesions healed fully during the experimental time”.

Q: And the Refractive index [2]?
A: The Refractive index was 1.3432.

Q: For CCCCCCCCCC(F)(F)C(F)(F)C(F)(F)C(F)(F)C(F)(F)C(F)(F)F [Example F6H9], which Refractive index [2] is on record?
A: The Refractive index was 1.3494.

Q: With O [Water, water, reference compound] as the compound, how does the Droplet volume ([3]; Eye dropper (Hylo-Vision)) read?
A: Its Droplet volume is 36.1 ± 2.2 µL.

Q: What about the Droplet weight ([3]; Eye dropper (Hylo-Vision)) of the same compound?
A: Its Droplet weight is 36.0 ± 2.2 mg.

Q: And the Droplet volume ([3]; Glass pipette)?
A: Its Droplet volume is 31.3 ± 1.4 µL.

Q: What about the Droplet weight ([3]; Glass pipette, 10 tests) of the same compound?
A: Its Droplet weight is 31.2 ± 1.4 mg.

Q: What about the Droplet volume ([3]; Injection needle 20 G) of the same compound?
A: The Droplet volume was 11.1 ± 0.9 µL.

Q: And the Droplet weight ([3]; Injection needle 20 G)?
A: Its Droplet weight is 11.0 ± 0.9 mg.

Q: Which “Effect on DED symptoms” value [1] does the source give for CC[C@@H]1C(=O)OC[C@@H]1Cc1cncn1C [pilocarpine] here?
A: Its value is “significantly improved DED symptoms”.

Q: Which results are given for benzalkonium chloride [BAC]?
A: Healing of corneal lesions (rabbit eyes [5]): rapid growth of the lesions eventually leading to a complete disintegration of the corneal epithelium; Morphological and histological evaluation of cornea (rabbit eyes [5]): complete disintegration of the corneal epithelium, but also a major impairment of the complete cornea even including the endothelium
